Experimental data: US11000033B2, “Ketone or oxime compound, and herbicide” (NISSAN CHEMICAL CORPORATION, priority 2014, dated 2021)

Key:
Assay type in all cases: in vivo
[1] = tested on: Scirpus juncoides; assay: Test Example 1: herbicidal activity, application before weed generation in submerged conditions (symbol B); conditions: application herbicide amount 320 g/ha
How it was run: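 Weeds are sown into submerged alluvial soil alongside transplanted 2.5-leaf rice, and the compound, as an emulsion diluted to a set rate, is applied onto the water before emergence. Rating on the 0–5 herbicidal-ratio scale follows 3 weeks of greenhouse growth at 25–30 °C.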

[2] = tested on: Leptochloa chinensis; assay: Test Example 3: herbicidal effect by foliage application, Wagner pot (symbol D); conditions: application herbicide amount 320 g/ha
How it was run: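 Plants sown in submerged alluvial soil (water depth 0.1–0.5 cm) in a 25–30 °C greenhouse and grown 14 days. An emulsion of the compound diluted in water to a set herbicide amount was sprayed uniformly on foliage. Effect on each plant scored 3 weeks after application.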

[3] = tested on: directly sowed rice plant; assay: Test Example 3: effect on crop by foliage application, Wagner pot (symbol b); conditions: application herbicide amount 320 g/ha
How it was run: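 Steps: fill a 1/10000-are Wagner pot with alluvial soil; add water and mix to submerge at 0.1–0.5 cm depth; sow rice plus Echinochloa crus-galli var. crus-galli, Leptochloa chinensis and Cyperus difformis; grow in a 25–30 °C greenhouse.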

[4] = tested on: Alopecurus myosuroides; assay: Test Example 4: herbicidal effect by soil treatment (symbol J); conditions: application herbicide amount 320 g/ha
How it was run: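 Seeds were sown in sterilized diluvial soil, covered with about 1.5 cm of soil, and the soil surface was sprayed with a water-diluted emulsion of the compound at a predetermined rate. Plants grew in a greenhouse at 25° C. to 30° C.; effects were scored visually 3 weeks after application.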

[5] = tested on: soybean; assay: Test Example 4: effect on crop by soil treatment (symbol d); conditions: application herbicide amount 320 g/ha
How it was run: (§1)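 Grown at 25° C. to 30° C. in a greenhouse, the crops came from seed sown spot-wise in sterilized diluvial soil under roughly 1.5 cm of covering soil.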

[6] = tested on: rice; assay: Test Example 4: effect on crop by soil treatment (symbol b); conditions: application herbicide amount 320 g/ha
How it was run: as §1

[7] = tested on: Digitaria ciliaris; assay: Test Example 5: herbicidal effect by foliage application, plastic box (symbol F); conditions: 320 g/ha, 3 weeks after application
How it was run: (§2)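 Sowing in sterilized diluvial soil, 14 days' greenhouse growth at 25° C. to 30° C., then uniform small-sprayer foliar application of aqueous emulsion dilution; plants scored three weeks afterwards.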

[8] = tested on: Echinochloa crus-galli var. crus-galli; assay: Test Example 5: herbicidal effect by foliage application, plastic box (symbol H); conditions: 320 g/ha, 3 weeks after application
How it was run: as §2

[9] = tested on: Alopecurus myosuroides; assay: Test Example 5: herbicidal effect by foliage application, plastic box (symbol J); conditions: 320 g/ha, 3 weeks after application
How it was run: as §2

[10] = tested on: Apera spica-venti; assay: Test Example 5: herbicidal effect by foliage application, plastic box (symbol L); conditions: 320 g/ha, 3 weeks after application
How it was run: as §2

[11] = tested on: Galium spurium; assay: Test Example 5: herbicidal effect by foliage application, plastic box (symbol Q); conditions: 320 g/ha, 3 weeks after application
How it was run: as §2

[12] = tested on: Veronica persica; assay: Test Example 5: herbicidal effect by foliage application, plastic box (symbol R); conditions: 320 g/ha, 3 weeks after application
How it was run: as §2

[13] = tested on: rapeseed; assay: Test Example 5: effect on crop by foliage application, plastic box (symbol g); conditions: 320 g/ha, 3 weeks after application
How it was run: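 Crop and weed seeds sown in spots in sterilized diluvial soil in plastic boxes and covered with about 1.5 cm soil. Plants raised in a greenhouse at 25° C. to 30° C. for foliar application.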

[14] = tested on: beet; assay: Test Example 4: effect on crop by soil treatment (symbol f); conditions: application herbicide amount 320 g/ha
How it was run: as §1

[15] = tested on: Chenopodium album; assay: Test Example 5: herbicidal effect by foliage application, plastic box (symbol O); conditions: 320 g/ha, 3 weeks after application
How it was run: as §2

CCC(=O)CCC1CC(O)=C(c2c(C)cc(C)cc2C)C1=O (stereo not shown) [5-001]
Herbicidal effect grade, B: Scirpus juncoides [1]: 0 (Herbicidal ratio of 5% or lower (almost no effect))
herbicidal effect on D (Leptochloa chinensis), grade 0-5 [2]: 3 (Herbicidal ratio of 40% or higher and lower than 70%)
effect on crop b (directly sowed rice plant), grade 0-5 [3]: 5 (Herbicidal ratio of 90% or more (almost completely withered))
J: Alopecurus myosuroides, herbicidal effect grade [4]: 2 (Herbicidal ratio of 20% or higher and lower than 40%)
d: soybean, effect on crop grade [5]: 0 (Herbicidal ratio of 5% or lower (almost no effect))
b: directly sowed rice plant, effect on crop grade [6]: 5 (Herbicidal ratio of 90% or more (almost completely withered))
F: Digitaria ciliaris, herbicidal effect grade [7]: 4 (Herbicidal ratio of 70% or higher and lower than 90%)
H: Echinochloa crus-galli var. crus-galli, herbicidal effect grade [8]: 3 (Herbicidal ratio of 40% or higher and lower than 70%)
J: Alopecurus myosuroides, herbicidal effect grade [9]: 5 (Herbicidal ratio of 90% or more (almost completely withered))
L: Apera spica-venti, herbicidal effect grade [10]: 4 (Herbicidal ratio of 70% or higher and lower than 90%)
Q: Galium spurium, herbicidal effect grade [11]: 0 (Herbicidal ratio of 5% or lower (almost no effect))
R: Veronica persica, herbicidal effect grade [12]: 0 (Herbicidal ratio of 5% or lower (almost no effect))
g: rapeseed, effect on crop grade [13]: 0 (Herbicidal ratio of 5% or lower (almost no effect))

CON=C(C)CC1CC(O)=C(c2c(C)cc(-c3ccc(OC)cc3)cc2C)C1=O (mixture of isomers) [6-017]
Herbicidal effect grade, B: Scirpus juncoides [1]: 1 (Herbicidal ratio of 5% or higher and lower than 20%)
herbicidal effect on D (Leptochloa chinensis), grade 0-5 [2]: 5 (Herbicidal ratio of 90% or more (almost completely withered))
effect on crop b (directly sowed rice plant), grade 0-5 [3]: 5 (Herbicidal ratio of 90% or more (almost completely withered))
d: soybean, effect on crop grade [5]: 0 (Herbicidal ratio of 5% or lower (almost no effect))
b: directly sowed rice plant, effect on crop grade [6]: 3 (Herbicidal ratio of 40% or higher and lower than 70%)
f: beet, effect on crop grade [14]: 0 (Herbicidal ratio of 5% or lower (almost no effect))
F: Digitaria ciliaris, herbicidal effect grade [7]: 5 (Herbicidal ratio of 90% or more (almost completely withered))
H: Echinochloa crus-galli var. crus-galli, herbicidal effect grade [8]: 5 (Herbicidal ratio of 90% or more (almost completely withered))
J: Alopecurus myosuroides, herbicidal effect grade [9]: 5 (Herbicidal ratio of 90% or more (almost completely withered))
L: Apera spica-venti, herbicidal effect grade [10]: 5 (Herbicidal ratio of 90% or more (almost completely withered))
O: Chenopodium album, herbicidal effect grade [15]: 4 (Herbicidal ratio of 70% or higher and lower than 90%)
Q: Galium spurium, herbicidal effect grade [11]: 0 (Herbicidal ratio of 5% or lower (almost no effect))
R: Veronica persica, herbicidal effect grade [12]: 3 (Herbicidal ratio of 40% or higher and lower than 70%)
g: rapeseed, effect on crop grade [13]: 3 (Herbicidal ratio of 40% or higher and lower than 70%)

CON=C(C)CC1CC(O)=C(c2c(C)cc(C(=O)OC)cc2C)C1=O (stereo not shown) [6-023]
Herbicidal effect grade, B: Scirpus juncoides [1]: 0 (Herbicidal ratio of 5% or lower (almost no effect))
herbicidal effect on D (Leptochloa chinensis), grade 0-5 [2]: 5 (Herbicidal ratio of 90% or more (almost completely withered))
effect on crop b (directly sowed rice plant), grade 0-5 [3]: 5 (Herbicidal ratio of 90% or more (almost completely withered))
J: Alopecurus myosuroides, herbicidal effect grade [4]: 4 (Herbicidal ratio of 70% or higher and lower than 90%)
d: soybean, effect on crop grade [5]: 0 (Herbicidal ratio of 5% or lower (almost no effect))
b: directly sowed rice plant, effect on crop grade [6]: 5 (Herbicidal ratio of 90% or more (almost completely withered))
F: Digitaria ciliaris, herbicidal effect grade [7]: 5 (Herbicidal ratio of 90% or more (almost completely withered))
H: Echinochloa crus-galli var. crus-galli, herbicidal effect grade [8]: 5 (Herbicidal ratio of 90% or more (almost completely withered))
J: Alopecurus myosuroides, herbicidal effect grade [9]: 5 (Herbicidal ratio of 90% or more (almost completely withered))
L: Apera spica-venti, herbicidal effect grade [10]: 4 (Herbicidal ratio of 70% or higher and lower than 90%)
Q: Galium spurium, herbicidal effect grade [11]: 0 (Herbicidal ratio of 5% or lower (almost no effect))
R: Veronica persica, herbicidal effect grade [12]: 1 (Herbicidal ratio of 5% or higher and lower than 20%)
g: rapeseed, effect on crop grade [13]: 3 (Herbicidal ratio of 40% or higher and lower than 70%)
